Where “and” joins values, the source holds several entries; their conditions need not be identical. Equal values may be shown once. Entries after “also recorded” stand apart in the source; their conditions may differ. Read-outs that look alike come from different tables or passages of the source.
Legend:
[1] = tested on: BRL-3a cells; assay: UA levels in xanthine-treated BRL-3A cells; type: cell-based; conditions: vs model group
Method: UA levels were measured following the method of Liu et al.. […] After 48 h of incubation, supernatants were collected, spun at 1000× g for 5 min, then the UA level was quantified with the UA assay kit.

[2] = molecular target: T1, XOD (xanthine oxidase) (Bos taurus, UniProt P80457); assay: Kinetic mechanisms of XOD inhibition (Lineweaver-Burk); type: biochemical, bovine; conditions: for Inhibition types: Lineweaver-Burk plots; for Kis (inhibition constant for the XOD-substrate complex): mixed inhibition model; for Ki: read-out: Ki (inhibition constant for XOD)
Method: The inhibition kinetics of XOD by FA, CA, GA, and PA were evaluated using Lineweaver–Burk plots. The inhibitor concentrations were as follows: FA (0, 2.0, 3.0, and 4.0 mM), CA (0, 1.0, 2.0, and 4.0 mM), GA (0.2, 1.0, 2.0, and 4.0 mM), and PA (1.0, 2.0, 5.0, and 10.0 mM). The substrate (xanthine) concentrations were fixed at 0.1, 0.2, 0.3, and 0.4 mM. XOD (0.05 U/mL) was used, and the initial reaction velocity (v) was calculated based on UA formation.
Lineweaver–Burk plots were established by plotting 1/v against 1/[s] for each inhibitor concentration. Four linear regressions were obtained for each inhibitor, enabling the determination of the inhibition type. […] The slope and intercept of the Lineweaver–Burk plot were plotted against inhibitor concentration [I], yielding the following equations: (3) and (4).
V denotes the reaction rate, Vmax the maximum rate, Km the Michaelis constant, Ki the inhibition constant for XOD, and Kis the inhibition constant for the XOD–substrate complex. Decreased Ki or Kis values indicate stronger inhibitory activity.

[3] = Oxygen radical absorption capacity (ORAC)
Method: The ORAC analysis method was adapted from Wang et al.with adjustments. The trial was conducted in 75 mM PBS (pH 7.4). […] AAPH was freshly dissolved in PBS at 38.25 mM and maintained in an ice-water bath. […] The reaction was initiated by adding 100 μL of AAPH solution, and fluorescence intensity was recorded every minute for 100 min to generate a fluorescence decay curve (Thermo Fisher Scientific, Waltham, MA, USA). Trolox served as the reference standard, while PBS functioned as the blank. ORAC values were determined from the net area under the fluorescence decay curve and expressed as Trolox equivalents per sample [22].

[4] = Reducing power (potassium ferricyanide, absorbance at 700 nm); conditions: concentration at which absorbance at 700 nm reached 0.5
Method: The mixture was incubated at 50 °C for 20 min, after which 0.5 mL of 10% (,w/v) trichloroacetic acid solution was added. Following centrifugation at 3000 rpm for 10 min, 0.5 mL of the supernatant was transferred to a new test tube, and 0.5 mL of distilled water along with 0.1 mL of 0.1% (,w/v) ferric chloride solution were added. After 10 min of incubation, absorbance was measured at 700 nm. Higher absorbance values correspond to stronger reducing activity. The IC50 value was defined as the concentration at which the absorbance reached 0.5.

[5] = molecular target: T1, XOD (xanthine oxidase); assay: XOD inhibitory activity in vitro (enzymatic reaction, HPLC of UA); type: biochemical, bovine
Method: The XOD inhibitory activity of the samples was assessed using an enzymatic reaction followed by HPLC analysis. Briefly, 50 μL of XOD (0.05 U/mL in 200 mM PBS, pH 7.5) was combined with either 50 μL of PBS (control) or 50 μL of the sample solution. The reaction mixture was equilibrated at 37 °C for 5 min, after which 150 μL of 0.40 mM xanthine was added. The reaction proceeded at 37 °C for 10 min and was terminated by adding 80 μL of 1.0 M HCl.
UA production was measured using an HPLC system (Agilent Technologies, Santa Clara, CA, USA) equipped with a UV detector. The reaction solution was diluted 20-fold and filtered, and 10 μL of the filtrate was injected into an Agilent Eclipse XDB-C18 column (150 × 4.6 mm, 5 μm). The mobile phase, consisting of 10% methanol and 90% 10 mM sodium phosphate buffer (pH 5.5), was delivered isocratically at 1.0 mL/min. UA was detected at 292 nm with the column maintained at 25 °C. Concentrations were calculated based on an external calibration curve. XOD inhibition was expressed as the percentage reduction of UA formation, and the IC50 value was defined as the sample concentration at which 50% inhibition was achieved.

[6] = ABTS radical scavenging activity
Method: The modified ABTS assay was carried out as described by Foss et al. with appropriate modifications. A 7 mM ABTS solution was mixed in equal volumes with 2.45 mM potassium persulfate and kept in the dark at room temperature for 12–16 h to generate the ABTS•^+ stock solution. […] Absorbance was recorded at 734 nm. PBS served as the blank, while Trolox was used as the standard. The results were reported as IC50 value, representing the concentration of sample required to scavenge 50% of ABTS•^+ radicals.

[7] = DPPH radical scavenging activity
Method: The DPPH• scavenging capacity was evaluated following the method of Nakbi et al.. […] The mixture was vortexed and incubated at room temperature for 30 min. Absorbance was then measured at 517 nm and recorded as Ai. For the control experiment, 10 μL of anhydrous ethanol replaced the sample soluition, while all other steps were identical, and the absorbance was recorded as Ac. To correct for background, 10 μL of sample solution was mixed with 240 μL of anhydrous ethanol alone, and the absorbance at 517 nm was recorded as A0.

[8] = molecular target: T2, XOD (Bos taurus, UniProt P80457); assay: CD spectroscopy, secondary structure of XOD; design: species or system bovine; conditions: for α-helix content of XOD: XOD with phenolic acid (300 μM solution, equal volumes), XOD alone 36.70; for β-sheet content of XOD: XOD with phenolic acid, XOD alone 13.87
T2 construct: XOD (7.2 units/mL, derived from bovine milk); purchased Sigma-Aldrich (St. Louis, MO, USA); host or cells: bovine milk
Method: CD spectroscopy was employed to determine the conformational structure of XOD in the presence of phenolic compounds. Spectra were recorded in the wavelength range of 190–250 nm using a scanning rate of 100 nm/min, with continuous nitrogen purging at room temperature. XOD was prepared at 2.0 mg/mL in PBS (200 mM, pH 7.5) and then diluted 6-fold to 0.33 mg/mL. Phenolic compounds were dissolved in PBS at 300 μM, and equal volumes of XOD and phenolic solutions were joined in equal amounts. CD spectra of the mixtures were recorded with the PBS as the background, and secondary structure content of XOD was analyzed employing the SELCON3 algorithm on the DichroWeb server (http://dichroweb.cryst.bbk.ac.uk/html/home.shtml).
The CONTIN program was used to determine the secondary structure composition of XOD (Figure 3B).

[9] = molecular target: T2, XOD; assay: Fluorescence quenching of XOD (Stern-Volmer); type: binding, bovine; conditions: for Kq (quenching rate constant) / n (number of binding sites): 298 K
Method: In brief, 100 µL of XOD (0.05 U/mL in 200 mM PBS, pH 7.5) was combined with 100 µL of each phenolic acid at final concentrations of 0, 50, 100, 200, 300, 400, and 500 μM. The mixtures were incubated at 25 °C for 10 min, and fluorescence emission spectra were recorded using a microplate reader (Thermo Fisher Scientific, Waltham, MA, USA) with an excitation wavelength of 280 nm and an emission collected from 310 to 500 nm. PBS was used as the blank, and background fluorescence was subtracted to ensure accuracy.
The binding mechanisms of FA, CA, GA, and PA to XOD were investigated using the fluorescence quenching method at seven different concentrations.
F0 and F denote the fluorescence intensities of XOD in the absence and presence of quenchers (FA, CA, GA, and PA), respectively. The quenching constant (Ksv) is, obtained from the linear fitting of F0/F against the quencher concentration [Q]. The quenching rate constant is expressed as Kq, while τ0 represents the average lifetime of the fluorophore in the absence of a quencher (typically 10^−9 s). The effective quenching constant of the accessible fluorophore is designated as Ka, and fa corresponds to the fraction of fluorescence accessible to quenching. The binding constant is indicated by K, and n stands for the number of binding sites.

[10] = XOD 0.05 U/mL, 0.40 mM xanthine, 37 °C, pH 7.5, read-out: IC50 of XOD inhibitory activity

T2 sequence (P80457 whole entry): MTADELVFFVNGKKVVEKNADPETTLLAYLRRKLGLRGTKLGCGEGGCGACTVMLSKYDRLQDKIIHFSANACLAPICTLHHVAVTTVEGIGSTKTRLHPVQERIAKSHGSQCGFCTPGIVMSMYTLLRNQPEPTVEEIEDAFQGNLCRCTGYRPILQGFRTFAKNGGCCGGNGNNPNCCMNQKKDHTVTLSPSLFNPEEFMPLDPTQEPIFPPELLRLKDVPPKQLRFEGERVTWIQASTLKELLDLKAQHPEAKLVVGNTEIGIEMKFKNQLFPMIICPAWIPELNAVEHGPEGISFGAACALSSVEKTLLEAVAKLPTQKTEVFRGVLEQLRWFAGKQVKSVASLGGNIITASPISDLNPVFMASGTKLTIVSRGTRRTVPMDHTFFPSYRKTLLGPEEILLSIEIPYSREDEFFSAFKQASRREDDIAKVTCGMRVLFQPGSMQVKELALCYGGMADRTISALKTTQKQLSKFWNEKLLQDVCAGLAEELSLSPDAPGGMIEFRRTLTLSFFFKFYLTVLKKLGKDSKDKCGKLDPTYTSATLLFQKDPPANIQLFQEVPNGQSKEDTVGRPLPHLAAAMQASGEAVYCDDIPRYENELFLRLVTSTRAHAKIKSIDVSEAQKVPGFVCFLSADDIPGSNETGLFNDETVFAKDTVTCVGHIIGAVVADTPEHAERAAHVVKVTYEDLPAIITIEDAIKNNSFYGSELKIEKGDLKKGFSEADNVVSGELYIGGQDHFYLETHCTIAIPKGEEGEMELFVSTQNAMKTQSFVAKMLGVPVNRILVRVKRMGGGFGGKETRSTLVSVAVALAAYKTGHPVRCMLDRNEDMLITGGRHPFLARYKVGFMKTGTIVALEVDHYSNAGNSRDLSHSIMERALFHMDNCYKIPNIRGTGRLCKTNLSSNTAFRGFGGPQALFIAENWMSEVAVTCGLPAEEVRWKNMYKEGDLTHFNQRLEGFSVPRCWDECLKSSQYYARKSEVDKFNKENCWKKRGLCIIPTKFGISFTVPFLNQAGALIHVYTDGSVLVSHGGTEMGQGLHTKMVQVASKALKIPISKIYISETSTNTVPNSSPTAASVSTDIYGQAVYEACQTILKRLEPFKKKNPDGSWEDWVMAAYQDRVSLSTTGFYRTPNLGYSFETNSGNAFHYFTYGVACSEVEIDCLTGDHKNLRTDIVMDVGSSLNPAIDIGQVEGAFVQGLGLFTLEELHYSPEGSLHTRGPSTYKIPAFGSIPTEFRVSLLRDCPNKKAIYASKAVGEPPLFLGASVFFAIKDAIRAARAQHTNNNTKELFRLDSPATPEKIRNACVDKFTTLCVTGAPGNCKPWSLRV
T1 sequence (P80457 whole entry): as above

Row | SMILES | Inhibition types [2] | Vmax ([2]; inhibitor 2.0 mM) | Vmax ([2]; inhibitor 4.0 mM) | Kis (inhibition constant for the XOD-substrate complex) [2] | Ki [2] | ORAC Value ([3]; Trolox equivalents) | Reducing Power [4] | IC50 [5, 10] | IC50 [6] | IC50 [7] | α-helix content of XOD [8] | β-sheet content of XOD [8] | Kd [9] | Kq (quenching rate constant) [9] | n (number of binding sites) [9] | Vmax ([2]; inhibitor 1.0 mM) | other results
1 | COc1cc(/C=C/C(=O)O)ccc1O [Ferulic acid, ferulic acid] | Mixed inhibition | 1.39 mM/min | 0.95 mM/min | 1.78 mM | 890 µM | 7.99 ± 0.24 c mmol TE/mmol | 0.74 ± 0.05 c mM | 2040 ± 110 µM | 300 µM | 800 ± 30 µM | 36.37% | 14.07% | 7140 µM | 0.16 ± 0.01 1012 L*mol-1*s-1 | 0.70 ± 0.01 | – | UA levels ([1]; 25–100 μM, 1 mM xanthine, 48 h, p < 0.05, listed as FA): significantly reduced uric acid (UA) concentration; also recorded: significantly reduced UA levels; Inhibition types ([2]; listed as FA): mixed inhibition with competitive dominance; Vmax ([2]; inhibitor 3.0 mM): 1.04 mM/min
2 | O=C(O)c1cc(O)c(O)c(O)c1 [Gallic acid, gallic acid] | Mixed inhibition | 4.72 mM/min | 3.61 mM/min | 3.05 mM | – | 20.12 ± 0.74 a mmol TE/mmol | 0.20 ± 0.01 mM·days | – | 20 µM | 180 ± 10 µM | 37.33% | 13.30% | 139 µM | 0.26 ± 0.01 1012 L*mol-1*s-1 | 1.13 ± 0.00 | 4.83 mM/min | UA levels ([1]; 25 μM, 1 mM xanthine, 48 h, listed as GA): significantly reduced UA levels; Inhibition types ([2]; listed as GA): mixed but predominantly non-competitive inhibition; Vmax ([2]; inhibitor 0.2 mM): 4.90 mM/min; ORAC Value [3]: 20.12 ± 0.74 mM; Reducing Power ([4]; listed as GA): 0.20 ± 0.01 mM; IC50 [5]: 870 ± 30 µM; inhibitory efficacy of GA relative to PA (XOD IC50) ([5]; GA vs PA): approximately 14.62 fold
3 | O=C(O)c1ccc(O)c(O)c1 [Protocatechuic acid, protocatechuic acid] | Mixed inhibition | 0.72 mM/min | – | 17.76 mM | 3210 µM | 6.63 ± 0.09 d mmol TE/mmol | 0.12 ± 0.01 mM·days | 12700 ± 670 µM | 400 ± 20 µM | 620 µM | 35.77% | 14.47% | 719 µM | 0.18 ± 0.01 1012 L*mol-1*s-1 | 0.98 ± 0.02 | 0.79 mM/min | UA levels ([1]; 25–100 μM, 1 mM xanthine, 48 h, p < 0.05, listed as PA): significantly reduced uric acid (UA) concentration; also recorded: significantly reduced UA levels; Inhibition types ([2]; listed as PA): mixed inhibition with competitive dominance; Vmax ([2]; inhibitor 5.0 mM): 0.69 mM/min; Vmax ([2]; inhibitor 10.0 mM): 0.68 mM/min; Reducing Power ([4]; listed as PA): 0.12 ± 0.01 mM
4 | Cc1c(C)c2c(c(C)c1O)CCC(C)(C(=O)O)O2 (stereo not drawn) [Trolox, 6-Hydroxy-2,5,7,8-tetramethylchromane-2-carboxylic acid, reference compound] | – | – | – | – | – | – | 2.62 ± 0.20 mM and 2.62 ± 0.20 b (Trolox) mM | – | 3410 ± 120 µM | 680 ± 10 µM | – | – | – | – | – | – | –
5 | Oc1ncnc2[nH]ncc12 [allopurinol, reference compound] | – | – | – | – | – | – | – | – | – | – | – | – | – | – | – | – | UA levels ([1]; positive control, p < 0.05): significantly lower UA levels
6 | O=C(O)/C=C/c1ccc(O)cc1 [p-Coumaric acid, p-coumaric acid] | Mixed inhibition | 0.74 mM/min | 0.68 mM/min | 6.04 mM | 1420 µM | 9.64 ± 0.27 b mmol TE/mmol | 6.98 ± 0.13 a mM | 7610 ± 300 µM | 230 ± 10 µM | 19400 ± 1240 µM | 36.20% | 14.70% | 99.9 ± 4.49 µM | 0.91 ± 0.01 1012 L*mol-1*s-1 | 1.01 ± 0.00 | 0.79 mM/min | UA levels ([1]; 25–100 μM, 1 mM xanthine, 48 h, p < 0.05, listed as CA): significantly reduced uric acid (UA) concentration; also recorded: significantly reduced UA levels; Inhibition types ([2]; listed as CA): mixed inhibition with competitive dominance
